# Legend:
# [1] = system: SW403 cells; test: SW403 cell viability, MTT assay; assay type: cell-based, human; conditions: sub-chronic treatment 72 hrs; compounds 30 μM, 5FU 300 nM
# Experimental: Cells were seeded in 12- or 96-well plates in complete medium 24 hrs before treatment and then incubated for 24 hrs (single treatment) or 72 hrs (multiple treatments) with different drug concentrations in media without serum. Cell viability was then evaluated.
# Alternatively, cell viability was assessed measuring mitochondrial functionality by the MIT assay, which is based on the reduction of the soluble tetrazolium salt MTT [(3-(4,5-dimethylthiazol-2-yl)-2,5-diphenyltetrazolium bromide] into insoluble formazan by mitochondria. Briefly, after treatment, cells were washed with PBS and incubated with 0.5 mg/ml, MTT for 2 hrs at room temperature, MTT reduction was quantified by absorbance at 570 nm using a UV-visible plate reader.
# [2] = biological target: rat acid ceramidase (rAC) (Rattus norvegicus (Rat), UniProt Q6P7S1); test: Rat acid ceramidase (rAC) enzymatic assay, LC/MS of lauric acid; assay type: biochemical; conditions: for IC50: rat acid ceramidase, 100 μM N-lauroyl ceramide, pH 4.5
# Chain of rat acid ceramidase (rAC) (Q6P7S1 142-394): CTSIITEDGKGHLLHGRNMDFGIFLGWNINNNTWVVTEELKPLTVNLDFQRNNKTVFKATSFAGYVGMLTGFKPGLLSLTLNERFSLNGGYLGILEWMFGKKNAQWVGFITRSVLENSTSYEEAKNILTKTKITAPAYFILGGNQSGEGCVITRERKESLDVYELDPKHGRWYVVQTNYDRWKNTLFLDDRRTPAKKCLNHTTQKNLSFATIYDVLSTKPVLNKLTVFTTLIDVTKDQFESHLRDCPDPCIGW
# Chain of rat acid ceramidase (rAC) (Q6P7S1 21-141): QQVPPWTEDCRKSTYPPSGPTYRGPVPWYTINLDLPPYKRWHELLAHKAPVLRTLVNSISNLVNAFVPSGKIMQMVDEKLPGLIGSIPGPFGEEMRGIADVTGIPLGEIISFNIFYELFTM
# Experimental: A lysosomal rat acid ceramidase (rAC) protein preparation was obtained from cells stably expressing rAC resuspended in 20 mM Tris HCl (pH 7.5) with 0.32 M sucrose. Samples were sonicated and centrifuged at 800×g for 15 min at 4° C. Supernatants were then centrifuged at 12,000×g for 30 min at 4° C. Pellets were re-suspended in PBS pH 7.4 and subjected to 2 freeze-thaw cycles at −80° C. The suspension was finally centrifuged at 105,000×g for 1 hr at 4° C. and the supernatant containing rAC was then used in the enzymatic assay.
# r-AC protein samples were pre-incubated with various concentrations of test compounds or vehicle control in 100 mM NaH2PO4/citrate buffer pH 4.5, 0.1% Nonidet P-40, 3 mM DTT for 30 min at 37° C. Samples were incubated with 100 μM N-lauroyl ceramide (Nu-Chek Prep, Elysian, Minn.) at 37° for 30 min. The reaction was stopped by addition of a mixture of chloroform/methanol (2:1 vol/vol) containing 1 nmol of heptadecanoic acid (HDA; NuChek Prep). The organic phases were collected, dried under nitrogen, and analyzed by LC/MS in the negative-ion mode using heptadecanoic acid (HDA) as internal standard (m/z=199 for lauric acid, m/z=269 for HDA). HDA was eluted on an XDB Eclipse C18 column isocratically at 2.2 mL/min for 1 min with a solvent mixture of 95% methanol and 5% water, both containing 0.25% acetic acid, and 5 mM ammonium acetate. The column temperature was 50° C. Electrospray ionization (ESI) was in the negative mode, capillary voltage was 4 kV, and fragmentor voltage was 100 V. Nitrogen was used as drying gas at a flow rate of 13 L/min and at a temperature of 350° C. Nebulizer pressure was set at 60 psi. We monitored [M-H]− in the selected-ion monitoring (SIM) mode using HDA as internal standard.
# Inhibition of rAC activity was calculated as a reduction of lauric acid in the samples compared to vehicle controls. Median inhibitory concentration (IC50) values were calculated by non-linear regression analysis of log [concentration]/inhibition curves using. GraphPad Prism 5 (GraphPad Software, Inc., CA, USA) applying a standard slope curve fitting.
# [3] = biological target: human acid ceramidase (hAC) (Homo sapiens (Human), UniProt Q13510); test: Human acid ceramidase (hAC) activity assay, UPLC/MS of lauric acid; assay type: biochemical; conditions: for IC50: human acid ceramidase, 50 μM N-lauroyl ceramide, pH 4.5
# Chain of human acid ceramidase (hAC) (Q13510 143-395): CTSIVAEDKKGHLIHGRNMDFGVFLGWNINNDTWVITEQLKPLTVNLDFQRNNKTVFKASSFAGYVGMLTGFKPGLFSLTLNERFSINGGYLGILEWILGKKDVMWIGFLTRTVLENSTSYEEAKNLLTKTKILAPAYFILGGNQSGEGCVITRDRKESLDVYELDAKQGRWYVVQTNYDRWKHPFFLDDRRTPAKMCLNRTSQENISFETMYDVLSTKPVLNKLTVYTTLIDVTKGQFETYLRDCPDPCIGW
# Chain of human acid ceramidase (hAC) (Q13510 22-142): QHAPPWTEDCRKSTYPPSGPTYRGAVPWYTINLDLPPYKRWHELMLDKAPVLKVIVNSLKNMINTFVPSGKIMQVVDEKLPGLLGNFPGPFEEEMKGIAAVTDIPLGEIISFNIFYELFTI
# Experimental: Human acid ceramidase (hAC) cDNA was purchased from Open Biosystem (clone ID 3923451) and subcloned in the mammalian expression vector pCDNA3.1, containing the neomycin resistance gene. The cell line HEK293 was transfected with hAC-pCDNA3.1 construct using JetPEI reagent (Polypus Transfection™, Illkirch, FR) following the manufacturer instructions. A stable cell line of hAC-overexpressing HEK293 was generated by selection with G418 (1 mg/ml) and cell clones were derived by limited dilution plating. hAC-expressing clones were analyzed by western blot.
# Hek293 cells overexpressing hAC were suspended in 20 mM Tris HCl (pH 7.5) containing 0.32M sucrose, sonicated and centrifuged at 800×g for 15 min at 4° C. The supernatants were centrifuged again at 12,000×g for 30 min at 4° C. The pellets were suspended in phosphate-buffered saline (PBS) and subjected to 2 freeze-thaw cycles at −80° C. The suspensions were centrifuged at 105,000×g for 1 h at 4° C. The supernatants containing hAC were kept at −80° C. until use. Protein concentration was measured using the bicinchoninic acid (BCA) assay (Pierce).
# A hAC protein preparation (10 μg) was preincubated with inhibitors (final DMSO concentration 1%) in assay buffer (100 mM sodium phosphate, 0.1% Nonidet P-40, 150 mM NaCl, 3 mM DTT, 100 mM sodium citrate, pH 4.5) for 30 min at 37° C. Reactions were started by the addition of 50 μM N-lauroyl ceramide (Nu-Chek Prep, Elysian, Minn.) and carried on for 30 min at 37° C. Reactions were stopped by addition of a mixture of chloroform/methanol (2:1, vol/vol) containing 1 nmol 11-lauroleic acid (NuChek Prep). The organic phases were collected, dried under nitrogen and analyzed by UPLC/MS (Acquity, Waters) in the negative-ion mode monitoring the reaction product (lauric acid, m/z=199) using 11-lauroleic acid as internal standard.
# Lipids were eluted on an Acquity UPLC BEH C18 column (50 mm length, 2.1 mm i.d., 1.7 μm pore size, Waters) column at 0.5 mL-min^−1 for 1.5 min with a gradient of acetonitrile (CH3CN) and water, both containing 0.25% acetic acid and 5 mM ammonium acetate (70% to 100% CH3CN in 0.5 min, 100% CH3CN for 0.5 min, 70% CH3CN for 0.4 min). The column temperature was 40° C. Electrospray ionization (ESI) was in the negative mode, capillary voltage was 1 kV and cone voltage was 50 V. Nitrogen was used as drying gas at a flow rate of 500 L/h and at a temperature of 400° C.
# The [M-H]^− ion was monitored in the selected-ion monitoring mode (m/z values: lauric acid 199, 11-lauroleic acid […]). Calibration curves were generated with authentic lauric acid (Nu Check Prep). Inhibition of acid ceramidase activity was calculated as reduction of lauric acid in the samples compared to vehicle controls. IC50 values were calculated by non-linear regression analysis of log [concentration]/inhibition curves using GraphPad Prism 5 (GraphPad Software Inc., CA, USA) applying a standard slope curve fitting.
# [4] = read-out: hAC percent inhibition
IC50 [2] [nM],"inhibition at 1 µM [3, 4] [%]",SMILES,also measured
,,"O=c1[nH]cc(F)c(=O)[nH]1 [5-fluorouracil, reference compound]",SW403 cell viability (MTT assay) [1]: reduced cell viability
,,"O=C(NCCCCc1ccccc1)n1ccc(=O)[nH]c1=O [Example 1, 2,4-dioxo-N-(4-phenylbutyl)pyrimidine-1-carboxamide]","inhibition at 0.3 µM ([2]; at 0.3 μM, read-out: rAC percent inhibition): 65%"
420,,"CCCCCCNC(=O)n1cc(CO)c(=O)[nH]c1=O [Example 7, N-hexyl-5-(hydroxymethyl)-2,4-dioxo-pyrimidine-1-carboxamide]",
147,,"CCCCCCNC(=O)n1cc(I)c(=O)[nH]c1=O [Example 8, N-hexyl-5-iodo-2,4-dioxo-pyrimidine-1-carboxamide]",
1100,,"CCCCCCNC(=O)n1cc(OC)c(=O)[nH]c1=O [Example 9, N-hexyl-5-methoxy-2,4-dioxo-pyrimidine-1-carboxamide]",
5500,,"CCCCCCNC(=O)n1cc(N(C)Cc2ccccc2)c(=O)[nH]c1=O [Example 10, 5-(benzyl(methyl)amino)-N-hexyl-2,4-dioxo-pyrimidine-1-carboxamide]",
3400,,"CCCCCCNC(=O)n1cc(NC)c(=O)[nH]c1=O [Example 11, N-hexyl-5-methylamino-2,4-dioxo-pyrimidine-1-carboxamide]",
880,,"CCCCCCNC(=O)n1cc(N2CCOCC2)c(=O)[nH]c1=O [Example 12, N-hexyl-5-morpholino-2,4-dioxo-pyrimidine-1-carboxamide]",
1400,,"CCCCCCNC(=O)n1cc(N2CCN(C)CC2)c(=O)[nH]c1=O [Example 13, N-hexyl-5-(4-methylpiperazin-1-yl)-2,4-dioxo-pyrimidine-1-carboxamide]",
,,"CCCCCCNC(=O)n1cc(-c2ccccc2)c(=O)[nH]c1=O [Example 14, N-hexyl-2,4-dioxo-5-phenyl-pyrimidine-1-carboxamide]",IC50 [3]: 155 nM
40,,"CCCCCCNC(=O)n1cc(C)c(=O)n(CC2CC2)c1=O [Example 16, 3-(cyclopropylmethyl)-N-hexyl-5-methyl-2,4-dioxo-pyrimidine-1-carboxamide]",
,74,"CCCCCCNC(=O)n1cc(-c2ccc(F)cc2)c(=O)[nH]c1=O [Example 18, 5-(4-fluorophenyl)-N-hexyl-2,4-dioxo-pyrimidine-1-carboxamide]",
,52,"CCCCCCNC(=O)n1cc(-c2ccc(OC)cc2)c(=O)[nH]c1=O [Example 19, N-hexyl-5-(4-methoxyphenyl)-2,4-dioxo-pyrimidine-1-carboxamide]",
,54,"CCCCCCNC(=O)n1cc(-c2ccc(C)cc2)c(=O)[nH]c1=O [Example 20, N-hexyl-2,4-dioxo-5-(p-tolyl)pyrimidine-1-carboxamide]",
,86,"CCCCCCNC(=O)n1cc(-c2ccc(C(F)(F)F)cc2)c(=O)[nH]c1=O [Example 21, N-hexyl-2,4-dioxo-5-[4-(trifluoromethyl)phenyl]pyrimidine-1-carboxamide]",
,64,"CCCCCCNC(=O)n1cc(-c2ccc3ccccc3c2)c(=O)[nH]c1=O [Example 22, N-Hexyl-5-(2-naphthyl)-2,4-dioxo-pyrimidine-1-carboxamide]",
,,"CCCCCCNC(=O)n1cc(Br)c(=O)n(C(=O)OC)c1=O [Example 23, Methyl 5-bromo-3-(hexylcarbamoyl)-2,6-dioxo-pyrimidine-1-carboxylate]",IC50 [3]: 270 nM
,,"CCCCCCNC(=O)n1cc(Br)c(=O)n(C(=O)OCC(C)C)c1=O [Example 24, Isobutyl 5-bromo-3-(hexylcarbamoyl)-2,6-dioxo-pyrimidine-1-carboxylate]",IC50 [3]: 14 nM
,96,"CCCCCCNC(=O)n1cc(Br)c(=O)n(C)c1=O [Example 25, 5-Bromo-N-hexyl-3-methyl-2,4-dioxo-pyrimidine-1-carboxamide]",
,100,"CCCCCCNC(=O)n1cc(-c2ccccc2)c(=O)n(C(=O)OCC(C)C)c1=O [Example 26, Isobutyl 3-(hexylcarbamoyl)-2,6-dioxo-5-phenyl-pyrimidine-1-carboxylate]",
,100,"CCCCCCNC(=O)n1cc(Cl)c(=O)n(C(=O)OCC(C)C)c1=O [Example 30, Isobutyl 5-chloro-3-(hexylcarbamoyl)-2,6-dioxo-pyrimidine-1-carboxylate]",
,99,"CCCCCCNC(=O)n1cc(-c2cccnc2)c(=O)[nH]c1=O [Example 31, N-hexyl-2,4-dioxo-5-(3-pyridyl)pyrimidine-1-carboxamide]",
7,,"CCCCCCCCNC(=O)n1cc(C(F)(F)F)c(=O)[nH]c1=O [Example 32, N-octyl-2,4-dioxo-5-(trifluoromethyl)pyrimidine-1-carboxamide]",
,100,"O=C(NCCCCCc1ccccc1)n1ccc(=O)[nH]c1=O [Example 33, 2,4-dioxo-N-(5-phenylpentyl)pyrimidine-1-carboxamide]",
,,"O=C(NCCCCCc1ccc(F)cc1)n1ccc(=O)[nH]c1=O [Example 34, N-[5-(4-fluorophenyl)pentyl]-2,4-dioxo-pyrimidine-1-carboxamide]","inhibition at 0.5 µM ([3]; at 0.5 μM, read-out: hAC percent inhibition): 99%"

SMILES,IC50 [2] [nM],"inhibition at 1 µM [3, 4] [%]",also measured
"CCCCCCNC(=O)n1cc(Cl)c(=O)[nH]c1=O [Example 3, 5-Chloro-N-hexyl-2,4-dioxo-pyrimidine-1-carboxamide]",67,,

# Reference: patent US9428465B2, “Acid ceramidase inhibitors and their use as medicaments” (FONDAZIONE ISTITUTO ITALIANO DI TECHNOLOGIA, priority 2012, dated 2016)
